# Results reported in ChEMBL document CHEMBL4304811, “Development of a Water-Soluble Indolylmaleimide Derivative IM-93 Showing Dual Inhibition of Ferroptosis and NETosis” (ACS Med Chem Lett, 2019).
# Experiments:
# [1] = biological target: Tyrosine-protein kinase ABL2 (Homo sapiens) (UniProt P42684); experiment: Binding affinity to wild-type human ABL2 (A248 to G542 residues) expressed in bacterial expression system assessed as residual binding level at 10 uM by Kinomescan method relative to control
# [2] = biological target: Calcium/calmodulin-dependent protein kinase type II subunit alpha (Homo sapiens) (UniProt Q9UQM7); experiment: Binding affinity to wild-type human partial length CAMK2A (M1 to K328 residues) expressed in bacterial expression system assessed as residual binding level at 10 uM by Kinomescan method relative to control
# [3] = biological target: Calcium/calmodulin-dependent protein kinase type II subunit beta (Homo sapiens) (UniProt Q13554); experiment: Binding affinity to wild-type human partial length CAMK2B (M1 to Q380 residues) expressed in bacterial expression system assessed as residual binding level at 10 uM by Kinomescan method relative to control
# [4] = biological target: Dual specificity protein kinase CLK3 (Homo sapiens) (UniProt P49761); experiment: Binding affinity to wild-type human full length CLK3 (M1 to R490 residues) expressed in bacterial expression system assessed as residual binding level at 10 uM by Kinomescan method relative to control
# [5] = test system: Epidermal growth factor receptor (Homo sapiens), P00533 [UNDEFINED MUTATION]; experiment: Binding affinity to human partial length EGFR L747-E749del/A750P mutant expressed in bacterial expression system assessed as residual binding level at 10 uM by Kinomescan method relative to control
# [6] = biological target: Ephrin type-A receptor 6 (Homo sapiens) (UniProt Q9UF33); experiment: Binding affinity to wild-type human partial length EPHA6 (Y700 to E1046 residues) expressed in bacterial expression system assessed as residual binding level at 10 uM by Kinomescan method relative to control
# [7] = biological target: Focal adhesion kinase 1 (Homo sapiens) (UniProt Q05397); experiment: Binding affinity to wild-type human partial length FAK (D402 to R696 residues) expressed in bacterial expression system assessed as residual binding level at 10 uM by Kinomescan method relative to control
# [8] = biological target: Fibroblast growth factor receptor 3 (Homo sapiens) (UniProt P22607); experiment: Binding affinity to wild-type human partial length FGFR3 (R442 to S771 residues) expressed in bacterial expression system assessed as residual binding level at 10 uM by Kinomescan method relative to control
# [9] = biological target: Tyrosine-protein kinase Fgr (Homo sapiens) (UniProt P09769); experiment: Binding affinity to wild-type human partial length FGR (L233 to T529 residues) expressed in bacterial expression system assessed as residual binding level at 10 uM by Kinomescan method relative to control
# [10] = biological target: G protein-coupled receptor kinase 4 (Homo sapiens) (UniProt P32298); experiment: Binding affinity to wild-type human full length GRK4 (M1 to C578 residues) expressed in bacterial expression system assessed as residual binding level at 10 uM by Kinomescan method relative to control
# [11] = biological target: Homeodomain-interacting protein kinase 2 (Homo sapiens) (UniProt Q9H2X6); experiment: Binding affinity to wild-type human partial length HIPK2 (M153 to S564 residues) expressed in mammalian expression system assessed as residual binding level at 10 uM by Kinomescan method relative to control
# [12] = biological target: Interleukin-1 receptor-associated kinase 1 (Homo sapiens) (UniProt P51617); experiment: Binding affinity to wild-type human partial length IRAK1 (R194 to S712 residues) expressed in mammalian expression system assessed as residual binding level at 10 uM by Kinomescan method relative to control
# [13] = biological target: Dual specificity mitogen-activated protein kinase kinase 4 (Homo sapiens) (UniProt P45985); experiment: Binding affinity to wild-type human partial length MEK4 (S84 to D399 residues) expressed in mammalian expression system assessed as residual binding level at 10 uM by Kinomescan method relative to control
# [14] = test system: Hepatocyte growth factor receptor (Homo sapiens), P08581 [Y1235D]; experiment: Binding affinity to human partial length MET Y1235D mutant (D1010 to S1367 residues) expressed in bacterial expression system assessed as residual binding level at 10 uM by Kinomescan method relative to control
# [15] = biological target: Serine/threonine-protein kinase 3 (Homo sapiens) (UniProt Q13188); experiment: Binding affinity to wild-type human partial length MST2 (D17 to E318 residues) expressed in bacterial expression system assessed as residual binding level at 10 uM by Kinomescan method relative to control
# [16] = biological target: Serine/threonine-protein kinase Nek1 (Homo sapiens) (UniProt Q96PY6); experiment: Binding affinity to wild-type human partial length NEK1 (M1 to K278 residues) expressed in bacterial expression system assessed as residual binding level at 10 uM by Kinomescan method relative to control
# [17] = biological target: Serine/threonine-protein kinase Nek11 (Homo sapiens) (UniProt Q8NG66); experiment: Binding affinity to wild-type human partial length NEK11 (M1 to E313 residues) expressed in mammalian expression system assessed as residual binding level at 10 uM by Kinomescan method relative to control
# [18] = biological target: Cyclin-dependent kinase 16 (Homo sapiens) (UniProt Q00536); experiment: Binding affinity to wild-type human partial length PCTK1 (G160 to A474 residues) expressed in mammalian expression system assessed as residual binding level at 10 uM by Kinomescan method relative to control
# [19] = biological target: Protein kinase C iota type (Homo sapiens) (UniProt P41743); experiment: Binding affinity to wild-type human partial length PRKCI (H215 to V587 residues) expressed in mammalian expression system assessed as residual binding level at 10 uM by Kinomescan method relative to control
# [20] = biological target: Serine/threonine-protein kinase D3 (Homo sapiens) (UniProt O94806); experiment: Binding affinity to wild-type human partial length PRKD3 (S543 to E863 residues) expressed in bacterial expression system assessed as residual binding level at 10 uM by Kinomescan method relative to control
# [21] = biological target: Protein-tyrosine kinase 2-beta (Homo sapiens) (UniProt Q14289); experiment: Binding affinity to wild-type human full length PYK2 (M1 to E967 residues) expressed in bacterial expression system assessed as residual binding level at 10 uM by Kinomescan method relative to control
# [22] = biological target: Serine/threonine-protein kinase RIO1 (Homo sapiens) (UniProt Q9BRS2); experiment: Binding affinity to wild-type human full length RIOK1 (M1 to K568 residues) expressed in bacterial expression system assessed as residual binding level at 10 uM by Kinomescan method relative to control
# [23] = biological target: SRSF protein kinase 2 (Homo sapiens) (UniProt P78362); experiment: Binding affinity to wild-type human full length SRPK2 (M1 to S686 residues) expressed in bacterial expression system assessed as residual binding level at 10 uM by Kinomescan method relative to control
# [24] = biological target: Serine/threonine-protein kinase WNK3 (Homo sapiens) (UniProt Q9BYP7); experiment: Binding affinity to wild-type human partial length WNK3 (M1 to D434 residues) expressed in mammalian expression system assessed as residual binding level at 10 uM by Kinomescan method relative to control
# Sequence of Serine/threonine-protein kinase WNK3 (Homo sapiens) (Q9BYP7 whole entry, the tested form may be a part): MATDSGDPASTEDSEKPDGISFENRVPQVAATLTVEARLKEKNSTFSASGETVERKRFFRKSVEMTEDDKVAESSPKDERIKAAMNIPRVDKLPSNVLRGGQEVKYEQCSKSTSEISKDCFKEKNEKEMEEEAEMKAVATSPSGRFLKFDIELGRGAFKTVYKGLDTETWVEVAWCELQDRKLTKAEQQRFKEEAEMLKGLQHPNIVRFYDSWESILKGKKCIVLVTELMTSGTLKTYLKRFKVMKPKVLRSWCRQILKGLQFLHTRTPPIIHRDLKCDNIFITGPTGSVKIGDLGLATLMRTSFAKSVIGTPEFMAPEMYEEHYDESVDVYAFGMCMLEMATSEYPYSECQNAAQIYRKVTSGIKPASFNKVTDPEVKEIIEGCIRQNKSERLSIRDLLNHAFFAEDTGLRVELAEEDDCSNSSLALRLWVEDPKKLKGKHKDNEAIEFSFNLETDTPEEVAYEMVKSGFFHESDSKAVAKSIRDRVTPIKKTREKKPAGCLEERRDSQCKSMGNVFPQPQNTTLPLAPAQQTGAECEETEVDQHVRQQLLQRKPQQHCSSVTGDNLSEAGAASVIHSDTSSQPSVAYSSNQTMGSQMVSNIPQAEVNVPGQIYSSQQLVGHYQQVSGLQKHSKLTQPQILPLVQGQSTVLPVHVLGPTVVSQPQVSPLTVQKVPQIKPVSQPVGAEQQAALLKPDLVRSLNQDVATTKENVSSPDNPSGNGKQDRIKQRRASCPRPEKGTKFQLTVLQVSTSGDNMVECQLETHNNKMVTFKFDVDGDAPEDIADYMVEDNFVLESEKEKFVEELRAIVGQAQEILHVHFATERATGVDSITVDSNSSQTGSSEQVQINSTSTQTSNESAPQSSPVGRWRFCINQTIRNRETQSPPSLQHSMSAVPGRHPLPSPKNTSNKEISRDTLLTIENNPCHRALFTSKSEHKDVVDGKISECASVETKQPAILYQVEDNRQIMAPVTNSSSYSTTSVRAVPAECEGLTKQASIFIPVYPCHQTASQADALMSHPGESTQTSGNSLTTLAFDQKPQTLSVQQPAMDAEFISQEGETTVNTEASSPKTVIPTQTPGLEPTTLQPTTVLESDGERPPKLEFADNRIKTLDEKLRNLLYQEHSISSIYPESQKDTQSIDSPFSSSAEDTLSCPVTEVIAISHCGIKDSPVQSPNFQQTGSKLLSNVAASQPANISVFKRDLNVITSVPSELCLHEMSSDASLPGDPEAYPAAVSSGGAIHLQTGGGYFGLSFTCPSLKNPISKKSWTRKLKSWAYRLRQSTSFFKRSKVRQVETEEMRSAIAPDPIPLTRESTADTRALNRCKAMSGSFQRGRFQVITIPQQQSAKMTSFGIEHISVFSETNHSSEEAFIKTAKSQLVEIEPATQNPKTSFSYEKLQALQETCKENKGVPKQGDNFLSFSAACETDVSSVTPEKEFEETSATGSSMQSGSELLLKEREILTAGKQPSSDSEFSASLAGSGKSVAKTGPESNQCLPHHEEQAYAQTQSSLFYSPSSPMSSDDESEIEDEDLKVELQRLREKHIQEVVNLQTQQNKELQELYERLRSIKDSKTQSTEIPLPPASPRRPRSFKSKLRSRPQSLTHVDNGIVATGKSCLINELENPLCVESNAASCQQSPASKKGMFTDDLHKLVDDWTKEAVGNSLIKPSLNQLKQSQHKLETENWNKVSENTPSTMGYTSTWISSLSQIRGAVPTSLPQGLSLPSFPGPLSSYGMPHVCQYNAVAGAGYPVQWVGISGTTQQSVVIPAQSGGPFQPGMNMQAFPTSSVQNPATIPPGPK
# Sequence of Homeodomain-interacting protein kinase 2 (Homo sapiens) (Q9H2X6 whole entry, looked up, the tested form may be a part): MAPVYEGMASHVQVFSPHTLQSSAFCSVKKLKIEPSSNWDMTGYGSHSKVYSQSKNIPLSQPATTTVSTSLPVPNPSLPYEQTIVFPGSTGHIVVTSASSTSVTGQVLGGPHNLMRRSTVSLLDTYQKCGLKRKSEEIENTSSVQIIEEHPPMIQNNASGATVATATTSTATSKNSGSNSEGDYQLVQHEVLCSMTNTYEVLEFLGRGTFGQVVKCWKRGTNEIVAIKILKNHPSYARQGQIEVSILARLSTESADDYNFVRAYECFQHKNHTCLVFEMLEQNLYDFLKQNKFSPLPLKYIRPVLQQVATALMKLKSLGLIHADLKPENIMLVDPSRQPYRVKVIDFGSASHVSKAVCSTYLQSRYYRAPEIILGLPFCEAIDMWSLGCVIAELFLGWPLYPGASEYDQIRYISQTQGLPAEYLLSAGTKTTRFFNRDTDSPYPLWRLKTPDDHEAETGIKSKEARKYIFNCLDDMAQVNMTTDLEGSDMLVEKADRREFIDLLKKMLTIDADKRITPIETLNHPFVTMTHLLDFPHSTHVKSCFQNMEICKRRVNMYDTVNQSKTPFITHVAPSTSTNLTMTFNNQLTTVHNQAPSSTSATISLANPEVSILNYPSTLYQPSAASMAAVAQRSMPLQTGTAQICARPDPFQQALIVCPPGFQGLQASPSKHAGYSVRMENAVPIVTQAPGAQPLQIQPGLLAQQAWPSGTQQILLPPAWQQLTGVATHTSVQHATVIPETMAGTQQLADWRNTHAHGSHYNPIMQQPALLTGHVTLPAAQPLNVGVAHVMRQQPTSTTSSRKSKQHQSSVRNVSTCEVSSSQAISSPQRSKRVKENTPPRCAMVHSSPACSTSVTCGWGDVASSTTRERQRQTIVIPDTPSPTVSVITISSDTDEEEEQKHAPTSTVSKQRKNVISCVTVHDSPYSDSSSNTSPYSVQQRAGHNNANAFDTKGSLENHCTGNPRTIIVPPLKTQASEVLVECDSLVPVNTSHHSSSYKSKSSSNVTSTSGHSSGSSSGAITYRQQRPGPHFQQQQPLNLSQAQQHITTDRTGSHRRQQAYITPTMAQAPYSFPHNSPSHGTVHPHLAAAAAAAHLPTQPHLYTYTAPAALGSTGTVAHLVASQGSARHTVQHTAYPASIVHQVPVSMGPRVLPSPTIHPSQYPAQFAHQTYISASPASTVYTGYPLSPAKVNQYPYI
# Sequence of Protein kinase C iota type (Homo sapiens) (P41743 whole entry, the tested form may be a part): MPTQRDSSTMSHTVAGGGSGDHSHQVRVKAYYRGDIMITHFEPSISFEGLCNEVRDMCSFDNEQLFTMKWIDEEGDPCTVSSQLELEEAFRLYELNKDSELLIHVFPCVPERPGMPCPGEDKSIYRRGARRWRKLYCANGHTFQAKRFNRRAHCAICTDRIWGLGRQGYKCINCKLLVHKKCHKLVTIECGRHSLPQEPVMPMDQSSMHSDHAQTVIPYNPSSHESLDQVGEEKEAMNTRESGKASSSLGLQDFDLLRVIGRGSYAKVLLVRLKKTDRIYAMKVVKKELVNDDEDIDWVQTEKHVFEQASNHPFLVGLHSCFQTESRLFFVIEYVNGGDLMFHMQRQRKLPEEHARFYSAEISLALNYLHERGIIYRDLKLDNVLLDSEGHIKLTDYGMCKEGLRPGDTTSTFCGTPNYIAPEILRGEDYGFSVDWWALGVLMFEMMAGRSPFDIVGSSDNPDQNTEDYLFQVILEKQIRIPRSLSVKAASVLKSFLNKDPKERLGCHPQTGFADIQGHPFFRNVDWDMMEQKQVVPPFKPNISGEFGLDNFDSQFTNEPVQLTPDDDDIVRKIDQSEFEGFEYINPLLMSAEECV
# Sequence of Tyrosine-protein kinase ABL2 (Homo sapiens) (P42684 whole entry, the tested form may be a part): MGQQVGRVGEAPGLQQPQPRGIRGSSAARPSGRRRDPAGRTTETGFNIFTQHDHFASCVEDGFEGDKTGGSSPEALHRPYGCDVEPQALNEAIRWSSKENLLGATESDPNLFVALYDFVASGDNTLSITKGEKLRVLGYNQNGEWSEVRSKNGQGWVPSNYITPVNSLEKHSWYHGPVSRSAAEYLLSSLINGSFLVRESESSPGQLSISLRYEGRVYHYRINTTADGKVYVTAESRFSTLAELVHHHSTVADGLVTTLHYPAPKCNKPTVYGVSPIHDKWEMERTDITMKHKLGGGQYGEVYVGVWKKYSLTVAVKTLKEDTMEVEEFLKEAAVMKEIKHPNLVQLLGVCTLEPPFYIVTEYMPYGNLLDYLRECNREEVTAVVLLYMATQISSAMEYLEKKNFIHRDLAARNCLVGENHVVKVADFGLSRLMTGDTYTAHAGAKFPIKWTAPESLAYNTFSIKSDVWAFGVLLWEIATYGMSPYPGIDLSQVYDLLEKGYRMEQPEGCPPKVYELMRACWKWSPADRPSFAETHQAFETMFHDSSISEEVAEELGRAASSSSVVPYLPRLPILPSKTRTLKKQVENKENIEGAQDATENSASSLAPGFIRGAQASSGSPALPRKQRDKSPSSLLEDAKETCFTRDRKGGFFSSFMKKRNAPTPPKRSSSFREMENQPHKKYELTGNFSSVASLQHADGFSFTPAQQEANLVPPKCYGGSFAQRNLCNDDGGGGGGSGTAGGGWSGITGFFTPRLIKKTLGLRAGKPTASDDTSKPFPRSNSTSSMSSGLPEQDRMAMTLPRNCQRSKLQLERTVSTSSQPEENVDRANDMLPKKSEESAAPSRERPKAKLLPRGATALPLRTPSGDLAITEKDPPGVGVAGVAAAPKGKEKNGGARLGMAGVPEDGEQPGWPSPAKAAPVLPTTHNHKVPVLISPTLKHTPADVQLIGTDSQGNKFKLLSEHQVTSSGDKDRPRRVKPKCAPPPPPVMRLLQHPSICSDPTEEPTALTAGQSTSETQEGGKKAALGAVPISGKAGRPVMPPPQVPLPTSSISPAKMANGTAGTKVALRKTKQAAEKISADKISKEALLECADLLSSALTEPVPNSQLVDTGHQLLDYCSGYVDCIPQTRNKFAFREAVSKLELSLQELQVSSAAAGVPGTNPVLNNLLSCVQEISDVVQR
structure (smiles),measurement,setting,value
CC(C)N1C(=O)C(NCCCN(C)C)=C(c2cn(C)c3ccccc23)C1=O.Cl,Activity,[1],98%
same,Activity,[2],100%
same,Activity,[3],100%
same,Activity,[4],92%
same,Activity,[5],88%
same,Activity,[6],100%
same,Activity,[7],100%
same,Activity,[8],100%
same,Activity,[9],82%
same,Activity,[10],88%
same,Activity,[11],100%
same,Activity,[12],66%
same,Activity,[13],100%
same,Activity,[14],99%
same,Activity,[15],100%
same,Activity,[16],100%
same,Activity,[17],100%
same,Activity,[18],92%
same,Activity,[19],88%
same,Activity,[20],91%
same,Activity,[21],100%
same,Activity,[22],100%
same,Activity,[23],100%
same,Activity,[24],78%
